Measurements published in article PMC11399425, “Tricyclic and tetracyclic antidepressants upregulate VMAT2 activity and rescue disease-causing VMAT2 variants” (Neuropsychopharmacology, 2024).

Tests used:
[1] = target: T1, VMAT2 (Mus musculus, UniProt Q8BRU6); test: FFN206 uptake upregulation assay (18-h treatment, washout) in HEK-VMAT2 cells; format: cell-based; set-up: The full-length mouse and human SLC18A2 cDNAs encoding VMAT2 were cloned into pcDNA3.1 vectors; expressed in transfected cells; conditions: for Emax, % vehicle (mean ± SEM) / EC50: 18 h treatment followed by washout; for Emax, % vehicle (mean ± SEM): at Emax concentration; for Emax concentration: 18 h treatment, concentration giving Emax; for Hill slope (upregulation): 18 h upregulation curve fit; for Effect on VMAT2 activity, sustained: 10 μM, washout, vs vehicle; for Effect on VMAT2 activity, sustained / Effect on VMAT2 activity, sustained, known VMAT2 inhibitors: 18 h; for EC50: HEK-VMAT2 cells, read-out: EC50 (95% CI), VMAT2 upregulation; for Effect on VMAT2 activity, sustained, known VMAT2 inhibitors: increasing concentrations (Fig. S5)
[2] = target: T1, VMAT2; test: FFN206 uptake inhibition assay (30-min treatment) in HEK-VMAT2 cells; conditions: for Hill Slope (inhibition): 30 min inhibition curve fit; for Imax, % vehicle (mean ± SEM): VMAT2 activity at 100 μM compound, 30 min, normalized to vehicle (100%)
Method: We detected colocalization of VMAT2 and FFN206 using epifluorescence microscopy (Fig. S2) and used FFN206 uptake to measure VMAT2 activity in HEK cells stably expressing mouse VMAT2 (HEK-VMAT2). We tested seven tricyclics and three tetracyclics that are approved for clinical use in humans (Fig. 1A, B). […] Next, we assessed the potency of the tricyclics and tetracyclics using dose response experiments.
For the inhibition assay, HEK-VMAT2 cells were seeded at 50,000 cells/well on day 1. […] Cells were incubated with FFN206 for 1hr. FFN206 uptake was terminated by aspirating the medium, and cells were washed twice with 200μL warm PBS (supplemented with 500μM MgCl2 and 900μM CaCl2), each with 5min incubation. Subsequently, 100μL warm PBS was added to each well and the plate was read with a Mithras LB 940 plate reader at excitation/emission filters 380nm/450nm.

[3] = system: hDAT mRNA; test: RT-qPCR of hDAT in HEK-YFP-DAT cells; format: cell-based, human; conditions: 100 μM, 18 h, HEK293 cells
Method: (§3) HEK-VMAT2, HEK-YFP-DAT, HEK-SERT, and BE(2)-M17 cells were seeded in 6-well tissue culture plates at 1,000,000 cells/well density. […] On the third day, medium was aspirated and the cells were directly collected in 1 mL/well of Trizol for RNA isolation [26]. RNA was reverse-transcribed into cDNA using the SuperScript™ IV VILO™ Master Mix with ezDNase™ Enzyme. Quantitative RT-qPCR was performed using PowerUp™ SYBR™ Green Master Mix and QuantStudio 3 Real-Time PCR System (ThermoFisher Scientific). The relative fold of gene expression was calculated as 2^-(∆∆Ct) normalized to GAPDH levels.

[4] = target: DAT (SLC6A3) (Homo sapiens, UniProt Q01959); conditions: 100 μM, 18 h, HEK-YFP-DAT cells
Method: (§1) HEK293, HEK-VMAT2, HEK-YFP-DAT, and HEK-SERT cells were seeded at 5,000,000 cells/dish density in 10 cm tissue culture dishes. […] On the collection day, cells were washed once with cold PBS, then harvested with 2 mL Tris-EDTA buffer (25 mM Tris-HCl, 1 mM EDTA, pH 7.4) containing freshly-added protease/phosphatase inhibitors. The cells were mechanically lysed on ice by Polytron (medium setting, 5 sec on, 5 sec off, two cycles), and centrifuged at 800 x g for 10 min at 4 °C to pellet the nuclear fraction. […] The supernatant was discarded and the pellet containing membrane proteins was resuspended with Tris-EDTA buffer with inhibitors and 0.2% SDS by vortexing until the pellet was dissolved. The protein concentration was determined using Pierce™ BCA Protein Assay Kits following the manufacturer’s instructions.
(§2) Electrophoretic resolution was done in MOPS-SDS running buffer (50 mM MOPS, 50 mM Tris, 0.1% SDS, 1 mM EDTA). The proteins were transferred onto a […] PVDF membrane and stained using Revert™ 700 Total Protein Stain. The resolved proteins were visualized at 700 nm on an Odyssey® M imaging system (LI-COR, Inc.). […] For the VMAT2 blot, the membrane was incubated with rabbit serum (in 50% glycerol) containing anti-mVMAT2 antibody against C-terminal peptide ([…]) at 1:3000 dilution overnight at 4 °C [24]. For the YFP-DAT blot, the membrane was incubated with rabbit-anti-GFP antibody (A11122) at 1:1500 dilution for 2 h at room temperature. For the SERT blot, the membrane was incubated with rabbit anti-SERT antibody (A104336, Antibodies.com) at 1:1000 dilution overnight at 4 °C. IRDye® 800CW Goat anti-Rabbit IgG secondary antibody at 1:7000 dilution in 3% non-fat milk in TBST was used for all blots. The blots were visualized under 700 nm and 800 nm channels on the Odyssey® M imaging system (LI-COR, Inc.) and quantified using ImageJ and Empiria Studio.

[5] = target: T1, VMAT2; conditions: 100 μM, 18 h, HEK-VMAT2 cells
Method: as §1, §2

[6] = system: mVMAT2 mRNA; test: RT-qPCR of mVMAT2 in HEK-VMAT2 cells; conditions: 100 μM, 18 h, HEK293 cells
Method: as §3

[7] = system: hSERT mRNA; test: RT-qPCR of hSERT in HEK-SERT cells; conditions: 100 μM, 18 h, HEK293 cells
Method: as §3

[8] = system: nine missense VMAT2 BMVTD variants; test: FFN206 uptake of transiently transfected VMAT2 BMVTD variants in HEK293T cells; format: cell-based, human; conditions: 50 μM, 18 h, total FFN206 fluorescence
[9] = system: monoamine transporter mRNA (VMAT2, VMAT1, DAT, NET, SERT); test: RT-qPCR of endogenous monoamine transporters mRNA in BE(2)-M17 cells; format: cell-based, human; conditions: 10 μM, 18 h
Method: as §3

[10] = target: T2, SERT (SLC6A4) (Homo sapiens, UniProt P31645); format: cell-based
T2 construct: expressed in transfected cells
Method: as §1
Electrophoretic resolution was done in MOPS-SDS running buffer (50 mM MOPS, 50 mM Tris, 0.1% SDS, 1 mM EDTA). The proteins were transferred onto a […] PVDF membrane and stained using Revert™ 700 Total Protein Stain. The resolved proteins were visualized at 700 nm on an Odyssey® M imaging system (LI-COR, Inc.). […] The blots were visualized under 700 nm and 800 nm channels on the Odyssey® M imaging system (LI-COR, Inc.) and quantified using ImageJ and Empiria Studio.

[11] = ref PubChem; cited from earlier work
[12] = target: VMAT2 (Homo sapiens, UniProt Q05940); conditions: 10 μM, 18 h, BE(2)-M17 cells
[13] = target: VMAT2 P387L (Homo sapiens, UniProt Q05940, P387L); conditions: 18 h, increasing concentration
[14] = target: VMAT2 P237H (Homo sapiens, UniProt Q05940, P237H); conditions: 18 h, increasing concentration

Row | Emax, % vehicle (mean ± SEM) [1] | Emax concentration [1] | Hill slope (upregulation) [1] | IC50 [2] | Hill Slope (inhibition) [2] | Imax, % vehicle (mean ± SEM) [2] | Compound | Effect on VMAT2 activity, sustained [1] | EC50 [1] | further results
1 | 237.26 ± 7.63 % vehicle | 31.62 µM | 1.728 | 12.4 µM | –1.173 | 8.47 ± 1.88 % vehicle | CN(C)CCC=C1c2ccccc2CCc2ccccc21 [AMI, Amitriptyline] |  |  | 
2 |  |  |  |  |  |  | CN1CCN2c3ccccc3Cc3ccccc3C2C1 (stereo not shown) [MIA, Mianserin] |  |  | logP [11]: 3.4; Endogenous VMAT2 activity ([12]; followed by washout): 270 % of vehicle; Endogenous VMAT2 activity without washout ([12]; without drug washout): significant upregulation of endogenous VMAT2 activity; Variant VMAT2 activity, dose-response [13]: dose-dependent upregulation; Total DAT protein [4]: did not affect total DAT protein; Variant VMAT2 activity, dose-response [14]: dose-dependent upregulation; Activity of all VMAT2 variants [8]: significant upregulation of activity of all VMAT2 variants
3 | 175.11 ± 7.95 % vehicle | 100 µM | 2.486 | 170 µM | –0.978 | 63.27 ± 7.1 % vehicle | CN1CCN2c3ncccc3Cc3ccccc3C2C1 (stereo not shown) [MIR, mirtazapine] |  | 35.1 µM | 
4 | 223.92 ± 11.02 % vehicle | 31.62 µM | 0.777 | 4.35 µM | –1.042 | 2.93 ± 0.24 % vehicle | CNCCCC1c2ccccc2C=Cc2ccccc21 [PRO, Protriptyline] | significant upregulation of VMAT2 activity |  | 
5 |  |  |  | 0.037 µM | –0.598 | 9.51 ± 0.67 % vehicle | COc1cc2c(cc1OC)C1CC(=O)C(CC(C)C)CN1CC2 (stereo not shown) [TBZ, tetrabenazine] |  |  | Effect on VMAT2 activity, sustained, known VMAT2 inhibitors [1]: no upregulation of VMAT2 activity was observed
6 | 194.63 ± 22.32 % vehicle | 100 µM | 1.939 | 13.1 µM | –1.173 | 5.87 ± 1.33 % vehicle | CC(CN(C)C)CN1c2ccccc2CCc2ccccc21 (stereo not shown) [TRI, Trimipramine] | significant upregulation of VMAT2 activity | 31.1 µM | 
7 |  |  |  |  |  |  | O=C(CCCN1CCC(O)(c2ccc(Cl)cc2)CC1)c1ccc(F)cc1 [haloperidol] |  |  | Effect on VMAT2 activity, sustained, known VMAT2 inhibitors [1]: no upregulation of VMAT2 activity was observed

Row | Compound | Emax, % vehicle (mean ± SEM) [1] | Emax concentration [1] | Hill slope (upregulation) [1] | IC50 [2] | Hill Slope (inhibition) [2] | Imax, % vehicle (mean ± SEM) [2] | Effect on VMAT2 activity, sustained [1] | EC50 [1] | further results
8 | CNCCCN1c2ccccc2CCc2ccccc21 [DES, Desipramine] | 177.59 ± 5.96 % vehicle | 56.23 µM | 1.530 | 16.2 µM | –1.176 | 7.51 ± 1.28 % vehicle | significant upregulation of VMAT2 activity | 17.1 µM | 
9 | CN(C)CCCN1c2ccccc2CCc2ccccc21 [IMI, Imipramine] | 245.36 ± 15.06 % vehicle |  | 1.505 | 17.3 µM | –1.195 |  | significant upregulation of VMAT2 activity | 29.9 µM | DAT mRNA expression [3]: elevated mRNA expression; Emax, % vehicle (mean ± SEM) ([1]; listed as imipramine): 245.36 % vehicle; Total DAT protein [4]: did not affect total DAT protein; Total VMAT2 protein [5]: significant increase; VMAT2 mRNA expression [6]: elevated mRNA expression; SERT mRNA expression [7]: elevated mRNA expression; Activity of all VMAT2 variants [8]: significant upregulation of activity of all VMAT2 variants; Monoamine transporter mRNA (including VMAT2) [9]: no upregulation in any monoamine transporter mRNA; Total SERT protein [10]: significantly increased total SERT protein
10 | CNCCC=C1c2ccccc2CCc2ccccc21 [NOR, Nortriptyline] | 207.90 ± 18.90 % vehicle | 31.62 µM | 0.915 | 13.3 µM | –0.920 | 8.73 ± 1.11 % vehicle | significant upregulation of VMAT2 activity |  | 
